The assay deals with L929 cells. The experiment in a line: Cytotoxicity of TNFα measured by LDH release (resazurin/diaphorase fluorescence). The class given is cell-based, mouse. Conditions: 20 hours incubation, in the presence of actinomycin D 1 μg/ml. As to the method:
A reagent solution was prepared combining a lyophilized substrate mixture with the assay buffer containing resazurin, and all of the ingredients required to measure the release of LDH from dead cells. The buffer solvent used to reconstitute the lyophilized substrate mixture was designed so that when it is used to reconstitute the mixture, the resulting solution has an osmolarity that is compatible with living cells. That is, the resulting solution was isotonic with the cells. When used to reconstitute the lyophilized substrate mix, the reagent solution contained:
L929 cells were cultured in F-12/DME with 10% FBS and serially-diluted in a microtiter plate to yield duplicate wells containing approximately 0, 1562, 3125, 6250, 12,500, 25,000, and 50,000 cells per well, in 90 μl total volume. Cells were incubated at 37° C. for sufficient time to allow attachment (about 1.5 hours). […] The fluorescence of each well was then measured (excitation 560 nm, emission 590 nm).
L929 cells (2000 cells/well) were prepared using a 384-well tissue culture plate in F-12/DME medium supplemented with 10% horse serum. […] Fluorescence was then determined at 560 nm excitation and 590 nm emission.

Take TNFα: the “concentration at or above which fluorescence remained essentially constant (all of the cells lysed)” value was “about 0.125 ng/ml”. The “observed fluorescence (560 nm excitation, 590 nm emission) as a measure of cell lysis” value (TNF concentrations from zero to about 0.125 ng/ml) is recorded as “rose in a TNFα dose-dependent fashion”.

Values taken from patent US7282348B2, “Kit for measuring cytotoxicity of a test agent” (Promega Corporation, priority 2002, dated 2007).
